Measured values reported in patent publication US20240010726A1, “LFA-1 SIGNALLING MEDIATOR FOR USE IN CANCER THERAPY” (Universität Basel, priority 2020, published 2024).

Key:
LFA-1 = biological target: T1, LFA-1 (Homo sapiens, UniProt P05107+P20701); test: Co-culture assay with Blinatumomab, LFA-1 head-piece opening on PHA-blasts; assay type: cell-based; conditions: 30 min co-culture with Ramos cells; Blinatumomab 300 pg ml^−1; ±Mg^2+
T1 construct: endogenous in cells; host or cells: primary human T cells from healthy donors: PHA-induced T cell blasts, sorted EM and naive CD8 T cells, and NY-ESO-1 TCR-transduced REP T cells
Method: FIG. 3: Magnesium regulates LFA-1 mediated T cell activation and cytotoxicity as well BiTE- and CAR T-cell functionality. (a) Glycolytic switch of murine WT and LFA-1^−/− CTLs upon injection of anti-CD3/28 Ab in medium containing 1.2 mM Mg^2+ and 0 mM Mg^2+, presented as quantification of summarized data with n=4 mice. (b) Calcium flux in WT and LFA-1^−/− Jurkat T cells stimulated with anti-CD3 Ab in 1.2 mM and 0 mM Mg^2+ medium, respectively. Cells were loaded with Fluo4, and signal intensity as recorded by plate reader, was normalized to unstimulated baseline values. […] Quantified results of n=3 mice with 3 technical replicates each. […] Results are quantified of n=3 mice with 3 technical replicates each. (e) Representative CD11a (LFA-1) surface expression on human naïve and EM CD8 T cells, PHA T cell blasts and REP T cells, assessed by flow cytometry. […] Data is presented as quantified results of n=5 healthy donors (f, g, h), n=3 healthy donors with 2 technical replicates each or n=1 healthy donor with 4 technical replicates (j). […] Data is presented as quantified results of n=1 healthy donor with 4 technical replicates. […] Cytotoxicity is reported as total area under the curve of the fluorescence driven by incorporation of cytotoxic green reagent in dead target cells (green area per μm^2). […]

[1] = test system: anti-PSMA CAR T cells co-cultured with PC3-PIP; test: Cytokine release assay of anti-PSMA CAR T cells (IFNγ ELISA); assay type: cell-based, human; conditions: 24 h; 0 mM vs 0.6 mM Mg^2+
Method: FIG. 3: Magnesium regulates LFA-1 mediated T cell activation and cytotoxicity as well BiTE- and CAR T-cell functionality. (a) Glycolytic switch of murine WT and LFA-1^−/− CTLs upon injection of anti-CD3/28 Ab in medium containing 1.2 mM Mg^2+ and 0 mM Mg^2+, presented as quantification of summarized data with n=4 mice. (b) Calcium flux in WT and LFA-1^−/− Jurkat T cells stimulated with anti-CD3 Ab in 1.2 mM and 0 mM Mg^2+ medium, respectively. Cells were loaded with Fluo4, and signal intensity as recorded by plate reader, was normalized to unstimulated baseline values. […] Quantified results of n=3 mice with 3 technical replicates each. […] The effector to target cell ratio was 3:1. Results are quantified of n=3 mice with 3 technical replicates each. (e) Representative CD11a (LFA-1) surface expression on human naïve and EM CD8 T cells, PHA T cell blasts and REP T cells, assessed by flow cytometry. […] The effector to target cell ratio was 1:1. Data is presented as quantified results of n=5 healthy donors (f, g, h), n=3 healthy donors with 2 technical replicates each or n=1 healthy donor with 4 technical replicates (j). […] Data is presented as quantified results of n=1 healthy donor with 4 technical replicates. […] (p) Abundance of IFNγ in cell culture supernatants corresponding to the conditions depicted in (o) at 24 hours was determined by ELISA (n=8, 3 independent experiments). […]

T1 sequence (P20701 26-1170): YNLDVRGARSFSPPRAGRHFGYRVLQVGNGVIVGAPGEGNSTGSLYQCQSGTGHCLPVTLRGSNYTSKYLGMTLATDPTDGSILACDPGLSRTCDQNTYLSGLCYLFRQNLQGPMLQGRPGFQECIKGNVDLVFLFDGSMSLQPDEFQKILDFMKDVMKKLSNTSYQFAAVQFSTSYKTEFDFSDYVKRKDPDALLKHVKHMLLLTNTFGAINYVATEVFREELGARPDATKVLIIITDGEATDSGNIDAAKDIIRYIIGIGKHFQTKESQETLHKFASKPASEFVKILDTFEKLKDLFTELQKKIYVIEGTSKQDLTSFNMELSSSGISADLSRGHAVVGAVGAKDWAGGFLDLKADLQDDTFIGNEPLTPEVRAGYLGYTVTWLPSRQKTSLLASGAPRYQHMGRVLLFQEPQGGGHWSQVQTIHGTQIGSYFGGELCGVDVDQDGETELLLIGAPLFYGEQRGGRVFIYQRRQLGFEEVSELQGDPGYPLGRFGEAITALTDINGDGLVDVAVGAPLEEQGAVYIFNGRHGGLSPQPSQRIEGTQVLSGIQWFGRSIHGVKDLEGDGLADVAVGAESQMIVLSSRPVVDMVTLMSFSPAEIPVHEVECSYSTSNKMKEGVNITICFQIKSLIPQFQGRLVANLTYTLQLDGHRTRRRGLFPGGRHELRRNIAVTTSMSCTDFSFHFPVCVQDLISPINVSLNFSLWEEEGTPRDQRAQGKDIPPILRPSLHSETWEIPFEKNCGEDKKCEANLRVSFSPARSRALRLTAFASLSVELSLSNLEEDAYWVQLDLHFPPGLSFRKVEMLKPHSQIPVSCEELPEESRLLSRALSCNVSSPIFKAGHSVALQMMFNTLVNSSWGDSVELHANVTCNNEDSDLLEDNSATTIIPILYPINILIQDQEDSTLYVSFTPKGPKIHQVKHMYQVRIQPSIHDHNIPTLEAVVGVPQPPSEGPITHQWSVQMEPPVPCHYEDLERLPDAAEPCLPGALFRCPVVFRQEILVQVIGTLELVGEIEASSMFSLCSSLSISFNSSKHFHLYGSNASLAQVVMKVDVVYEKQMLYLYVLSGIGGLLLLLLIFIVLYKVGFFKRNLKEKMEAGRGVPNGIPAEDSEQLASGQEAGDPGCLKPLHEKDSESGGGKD
T1 sequence (P05107 23-769): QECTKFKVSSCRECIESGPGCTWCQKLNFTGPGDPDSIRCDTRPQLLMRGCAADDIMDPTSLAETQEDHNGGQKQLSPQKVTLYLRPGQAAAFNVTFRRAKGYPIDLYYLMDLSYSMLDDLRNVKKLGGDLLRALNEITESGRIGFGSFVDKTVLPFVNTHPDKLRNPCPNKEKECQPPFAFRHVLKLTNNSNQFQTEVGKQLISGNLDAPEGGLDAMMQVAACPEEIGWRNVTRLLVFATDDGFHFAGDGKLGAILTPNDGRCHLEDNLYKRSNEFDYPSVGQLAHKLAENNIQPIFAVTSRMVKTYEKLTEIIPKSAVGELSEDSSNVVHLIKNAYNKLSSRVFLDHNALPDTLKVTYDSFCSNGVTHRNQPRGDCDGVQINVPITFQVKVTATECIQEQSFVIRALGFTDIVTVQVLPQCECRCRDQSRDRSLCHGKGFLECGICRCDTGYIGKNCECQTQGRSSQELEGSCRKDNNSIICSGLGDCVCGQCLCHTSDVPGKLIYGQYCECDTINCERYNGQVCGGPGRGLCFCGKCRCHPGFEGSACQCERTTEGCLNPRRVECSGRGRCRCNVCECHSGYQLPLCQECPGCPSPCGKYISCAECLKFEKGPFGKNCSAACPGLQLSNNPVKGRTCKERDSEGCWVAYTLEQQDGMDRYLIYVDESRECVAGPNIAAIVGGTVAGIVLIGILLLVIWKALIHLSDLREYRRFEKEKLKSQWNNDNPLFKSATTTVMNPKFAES

Compound: [Mg+2] [Mg^2+, Magnesium]
- Activation-induced LFA-1 head-piece opening on PHA-blasts (LFA-1): Mg^2+-dependent
- IFNγ release [1]: reduced inflammatory IFNγ release
